The structures appear in SMILES notation.

The first test deals with MMP-9 (Homo sapiens, UniProt P14780). Briefly: MMP-9 inhibition assay (internally quenched fluorescent peptide substrate). The test is classed as biochemical. Particulars: 1 μM; purified MMP-9 enzyme, incubation at 37 C. The procedure: Each of the compounds of Examples 5-12 were assayed for their efficacy as MMP-9 inhibitors. The assay for MMP-9 inhibitors was performed by mixing purified MMP-9 enzyme with assay buffer, substrate, and compound to be tested. The substrate is an internally quenched fluorescent peptide that becomes unquenched upon cleavage by MMP-9 enzyme. After incubation at 37 C., the assay is stopped by addition of EDTA solution and the fluorescence is measured. The fluorescence is directly proportional to enzyme activity. A compound that is an inhibitor of MMP-9 activity will reduce the resultant fluorescent values.
Sequence of MMP-9 (P14780 94-707, species assumed): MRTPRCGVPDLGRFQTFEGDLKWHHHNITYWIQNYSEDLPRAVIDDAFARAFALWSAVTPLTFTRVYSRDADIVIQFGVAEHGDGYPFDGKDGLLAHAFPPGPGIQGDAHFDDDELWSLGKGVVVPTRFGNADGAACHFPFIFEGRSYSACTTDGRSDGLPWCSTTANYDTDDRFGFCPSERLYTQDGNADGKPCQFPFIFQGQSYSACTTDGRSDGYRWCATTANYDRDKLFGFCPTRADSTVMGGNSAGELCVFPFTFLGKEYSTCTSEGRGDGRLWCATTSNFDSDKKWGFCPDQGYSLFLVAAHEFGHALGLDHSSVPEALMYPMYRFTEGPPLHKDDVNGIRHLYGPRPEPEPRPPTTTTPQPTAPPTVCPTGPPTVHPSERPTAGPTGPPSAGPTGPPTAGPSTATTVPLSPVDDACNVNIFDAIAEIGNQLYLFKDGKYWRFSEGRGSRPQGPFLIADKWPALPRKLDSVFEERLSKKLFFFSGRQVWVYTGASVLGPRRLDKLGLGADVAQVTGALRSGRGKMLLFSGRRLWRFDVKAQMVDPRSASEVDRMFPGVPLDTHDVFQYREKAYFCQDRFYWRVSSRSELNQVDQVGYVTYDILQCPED
For the compound `COc1ccc(S(=O)(=O)N(CCc2cccc(Cl)c2)CC(=O)N2CC(=O)N(Cc3ccc(F)cc3)CC2CC(=O)NO)cc1` (stereo not drawn) [Example 4, 2-{1-[N-(3-Chlorophenethyl)-N-(4-methoxybenzenesufonyl)-aminoacetyl]-4-(4-fluorobenzyl)-5-oxo-piperazin-2-yl}-N-hydroxy-acetamide], the inhibition (commonly the change of the read-out against control, counted positive when it falls) at 1 µM turned out to be 52%.

With `COc1ccc(CCN(CC(=O)N2CC(=O)N(Cc3cc(OC)cc(OC)c3)CC2CC(=O)NO)S(=O)(=O)c2ccc(OC)cc2)cc1` (stereo not drawn) [Example 8, 2-{4-(3,5-Dimethoxybenzyl)-1-[N-(4-methoxybenzenesufonyl)-N-(4-methoxyphenethyl)-aminoacetyl]-5-oxo-piperazin-2-yl}-N-hydroxy-acetamide], the inhibition at 1 µM turned out to be 35%.

`COc1ccc(CCN(CC(=O)N2CC(=O)N(Cc3ccc(F)cc3)CC2CC(=O)NO)S(=O)(=O)c2ccc(OC)cc2)cc1` (stereo not drawn) [Example 5, 2-{4-(4-fluorobenzyl)-1-[N-(4-methoxybenzenesufonyl)-N-(4-methoxyphenethyl)-aminoacetyl]-5-oxo-piperazin-2-yl}-N-hydroxy-acetamide] had an inhibition at 1 µM of 42%.

On to `COc1ccc(S(=O)(=O)N(CCc2cccc(Cl)c2)CC(=O)N2CC(=O)N(Cc3cc(OC)cc(OC)c3)CC2CC(=O)NO)cc1` (stereo not drawn) [Example 7, 2-{1-[N-(3-Chlorophenethyl)-N-(4-methoxybenzenesufonyl)-aminoacetyl]-4-(3,5-dimethoxybenzyl)-5-oxo-piperazin-2-yl}-N-hydroxy-acetamide], for which testing at 1 µM gave an inhibition of 62%.

Still in this test, the particulars now being: purified MMP-9 enzyme, incubation at 37 C.
As for `COc1ccc(CCN(CC(=O)N2C(CC(=O)NO)CN(Cc3cc(OC)cc(OC)c3)C(=O)[C@@H]2C)S(=O)(=O)c2ccc(OC)cc2)cc1` (stereo partly drawn) [Example 10, 2-{4-(3,5-dimethoxybenzyl)-1-[N-(4-methoxybenzenesufonyl)-N-(4-methoxyphenethyl)-aminoacetyl]-6-(S)-methyl-5-oxo-piperazin-2-yl}-N-hydroxy-acetamide], the midpoint of inhibition, the IC50, lay at 150 nM. This lies in the sub-micromolar range.

Regarding `COc1ccc(CCN(CC(=O)N2C(CC(=O)NO)CN(Cc3ccc(F)cc3)C(=O)[C@@H]2C)S(=O)(=O)c2ccc(OC)cc2)cc1` (stereo partly drawn) [Example 6, 2-{4-(4-Fluorobenzyl)-1-[N-(4-methoxybenzenesufonyl)-N-(4-methoxyphenethyl)-aminoacetyl]-6-(S)-methyl-5-oxo-piperazin-2-yl}-N-hydroxy-acetamide], the IC50 (usually the point on the concentration scale where inhibition reaches its midpoint) turned out to be 100 nM. This IC50 lies about 1.5-fold lower than the previous one.

In turn, `COc1ccc(S(=O)(=O)N(CCc2cccc(Cl)c2)CC(=O)N2C(CC(=O)NO)CN(Cc3ccc(F)cc3)C(=O)[C@@H]2C)cc1` (single isomer, unassigned) [3B (isomer B)] came in with an IC50 of 53 nM.

`COc1ccc(S(=O)(=O)N(CCc2cccc(Cl)c2)CC(=O)N2C(CC(=O)NO)CN(Cc3cc(OC)cc(OC)c3)C(=O)[C@@H]2C)cc1` (stereo partly drawn) [Example 9, 2-{1-[N-(3-Chlorophenethyl)-N-(4-methoxybenzenesufonyl)-aminoacetyl]4-(3,5-dimethoxybenzyl)-6-(S)-methyl-5-oxo-piperazin-2-yl}-N-hydroxy-acetamide] had an IC50 of 120 nM. This IC50 is about 2.3-fold higher than that of the compound before.

Consider `COc1ccc(S(=O)(=O)N(CCc2cccc(Cl)c2)CC(=O)N2C(CC(=O)NO)CN(Cc3ccc(F)cc3)C(=O)[C@@H]2C)cc1` (single isomer, unassigned) [3A (isomer A)], for which the 50% inhibitory concentration (IC50) amounted to 50 nM.

The record behind these values is patent publication US6294539A, “Heterocyclic hydroxamic acid derivatives as MMP inhibitors” (Advanced Syntech, LLC, priority 2000, dated 2001).
